Measurements as given in patent US20170290915A1, “METHODS FOR DELIVERING AN ANTI-CANCER AGENT TO A TUMOR” (priority 2010, published 2017).
Values joined by “and” are separate entries in the source; they are usually repeats but may differ in a detail not shown here. Equal entries are not always repeated.

Tests used:
[1] = Evans blue dye (EBD) delivery to tumor, thermal enhancement ratio (TER); type: in vivo, mice
Protocol: Mouse sarcoma S-180 cells were propagated by intraperitoneal injection (5×10^6 S-180 cells in 1 ml phosphate buffered saline (PBS)) in female CD-1 mice (4-6 weeks old) and allowed to grow until 15% weight gain was observed. Animals were then euthanized by CO2 gas inhalation and the cells were harvested from the abdominal cavity. The cells were then washed to remove blood, diluted and subcutaneously injected into each flank of the animal (2×10^6 cells/flank in 200 μl PBS) while anesthetized with isofluorane. Tumors were then allowed to grow until average tumor volume reached 50-100 mm^3 (usually 7-10 days).
The animals were separated randomly into groups. Half received 200 μl of GNRs (9.6 mg/kg, OD=120) and the other half saline by intravenous injection through the tail vein. After 24 hours, enough time for the GNRs to accumulate in the tumor at 1.22% injected dosed based on previous experiments and other reports in the literature (Dickerson et al., 2008), the animals were anesthetized and the areas around the tumors were shaved and swabbed with 50% propylene glycol to enhance laser penetration depth. After 20 minutes EBD (10 mg/kg in 200 μl saline) was injected intravenously and a 33 gauge needle thermocouple (Omega #HYPO-33-1-T-G-60-SMPW-M) was inserted into the center of the tumor to monitor tumor temperatures. After roughly 10 seconds that temperature data was collected, an 808 nm fiber coupled laser diode (Oclaro #BMU6-808-02-R01) with collimating lens (Thorlabs #F810SMA-780, spot size=7 mm) was directed over the right tumor and radiated. Two different laser powers were used in this study (1.6 and 1.2 W/cm^2) such that one group received severe and the other moderate tumor hyperthermia. After 10 minutes of radiation, the laser was turned off and tumors were allowed to cool for two minutes before removal of the temperature probe.
After the animals were allowed to rest for 5 hours, enough time for the EBD to be cleared from the blood, the animals were sacrificed by CO2 inhalation. Both tumors were collected, weighed and the EBD was extracted in 1.5 ml of formamide for 48 hrs at 60° C. The EBD content was then measured spectrophotometrically at 620 nm and divided by the weight of the tumor. The extravasation of EBD was then calculated as a ratio of the right (treated) to left (untreated) tumor and expressed as a thermal enhancement ratio (TER).

[2] = molecular target: T1, αvβ3 integrins (Homo sapiens, UniProt P05106+P06756); experiment: Competitive inhibition of RGDfK-GNR binding with echistatin; type: cell-based; details: echistatin 50 nM co-incubation; HUVECs; 4° C. for 2 hours; binding buffer
T1 construct: endogenous in cells; host or cells: HUVEC
Protocol: Confirmation of RGDfK-GNR specificity to αvβ3 integrins was performed by competitive inhibition of binding with echistatin. In brief, HUVEC cells were grown to 50% confluency on fibronectin coated cover slips. The media was then removed and replaced with cold binding buffer (20 mmol/L Tris, pH 7.4, 150 mmol/L NaCl, 2 mmol/L CaCl2, 1 mmol/L MgCl2, 1 mmol/L MnCl2, 0.1% bovine serum albumin) containing RGDfK-GNRs (10 μg/ml) and HUVECs were co-incubated at 4° C. for 2 hours with or without 50 nM echistatin (Sigma-Aldrich). Cells were then washed three times with cold binding buffer, mounted to a slide and imaged by high-resolution dark field microscopy.

Row | Compound | TER (EBD in treated/untreated tumor) ([1]; Laser alone (no GNRs), 1.2 W/cm^2) | TER (EBD in treated/untreated tumor) ([1]; Laser alone (no GNRs), 1.6 W/cm^2) | TER (EBD in treated/untreated tumor) ([1]; PPTT (GNRs + laser), 1.2 W/cm^2) | TER (EBD in treated/untreated tumor) ([1]; PPTT (GNRs + laser), 1.6 W/cm^2, EBD 10 mg/kg i.v., 5 hours) | TER ([1]; laser treatment without the presence of GNRs (power not specified)) | Inhibition of RGDfK-GNR binding to the cell's surface [2]
1 | Cc1cc(-c2ccc(/N=N/c3ccc4c(S(=O)(=O)[O-])cc(S(=O)(=O)[O-])c(N)c4c3O)c(C)c2)ccc1/N=N/c1ccc2c(S(=O)(=O)[O-])cc(S(=O)(=O)[O-])c(N)c2c1O.[Na+].[Na+].[Na+].[Na+] [EBD, Evans blue dye] | 0.94 ± 0.25 | 1.05 ± 0.15 | 1.68 and 1.68 ± 0.65 | 1.82 and 1.82 ± 0.40 | around 1.0 | –
2 | echistatin | – | – | – | – | – | almost complete inhibition
